Assay results reported in paper PMC12165799, “Antimicrobial peptide developed with machine learning sequence optimization targets drug resistant Staphylococcus aureus in mice” (The Journal of Clinical Investigation, 2025).
≈ marks a conversion by molar mass, not a printed value.

Assays:
[1] = test system: S. aureus isolates; assay: microbe, parasite or virus in culture; details: Staphylococcus aureus
[2] = test system: S. aureus MW2; assay: ATP release assay (luciferase); assay type: cell-based, Staphylococcus aureus; details: 32 μg/mL, 30 minutes
Description: (§1) 484 min at room temperature in the dark based on a previously established protocol (8). We added 90
(§2) 485 µl of the dye/bacteria mixture to 10 μl of serially diluted 10× peptide concentration in black, 96-
(§3) 486 well plates (Cat. no. 3904, Corning, NY, USA) and incubated the plates for 1 hour at room
(§4) 487 temperature. We measured the fluorescence with excitation and emission wavelengths of 485 nm
(§5) 488 and 525 nm, respectively in endpoint assay mode using a SpectraMax i3x (Molecular Devices,
(§6) 489 CA, USA) fluorescence reader.
(§7) 490 Propidium iodide-based membrane permeability
(§8) 491 We used a propidium iodide (Thermo Fisher Scientific, MA, USA) fluorescence-based
(§9) 492 bacterial permeation assay to establish membrane-oriented interactions with the designed peptides
(§10) 493 based on a previously established protocol (8). We prepared exponential phase S. aureus MW2
(§11) 494 bacteria and diluted to OD600 = 0.4 in PBS. We added PI dye (final concentration = 2 µM) to the
(§12) 495 bacteria in 1:10 serial dilutions in black, 96-well plates (Cat. no. 3904, Corning, NY, USA) and
(§13) 496 incubated the plates for 1 hour at room temperature. We then measured the fluorescence with an
(§14) 497 excitation wavelength of 584 nm and an emission wavelength of 620 nm in endpoint assay mode
(§15) 498 using a SpectraMax i3x (Molecular Devices, CA, USA) fluorescence reader.
(§16) 501 To determine the ATP leakage potential of the peptides, we employed a luciferase-based […]

[3] = test system: S. aureus MW2 membrane; assay: SYTOX-based cell membrane permeability assay; set-up: species or system Staphylococcus aureus; details: S. aureus MW2, 1 hour; CIT-8 4–32 μg/mL
Description: as §1, §2, §3, §4, §5, §6, §7, §8, §9, §10, §11, §12, §13, §14, §15, §16

[4] = test system: S. aureus MW2; assay: Cryo-electron microscopy; assay type: cell-based, Staphylococcus aureus; details: 80 μg/mL, 60 minutes
Description: 506 containing 50 µl BacTiter-Glo reagent (Promega, WI, USA) and measured plate luminescence as
507 previously described (18) after 5 min of incubation at room temperature.
509 Cryo-electron microscopy (cryo-EM)
510 We statically treated 10 ml of an exponential-phase S. aureus MW2 culture (OD600 = 0.4,
For imaging, we vitrified the
512 bacteria cells using Leica EM-GP2® plunger (Leica Microsystems, Wetzlar, Germany) on R2×2
513 Quantifoil® carbon holey film (Micro Tools GmbH, Jena, Germany) grids as previously described
514 (19). Briefly, we applied a 4 µl of bacterial suspensions to the grids pre-cleaned in a Gatan Solarus
515 950 plasma cleaner (Gatan, Inc, USA), blotted with filter paper, and plunged into liquid ethane.
516 We stored the frozen grids under liquid nitrogen until used for microscopy. We then transferred
517 the grids into a JEM 2200FS electron microscope (JEOL Ltd, Akishima, Japan) operating at 200
518 keV and equipped with a field emission gun, in-column electron energy filter (omega type) and a
519 DE20 direct electron detector camera (Direct Electron Inc., CA, USA). We used a 20 eV energy
520 slit width during data acquisition. Total electron dose/image was ~15 electrons/Å2. Image pixel
521 size was 3.66 Å on the specimen scale.
523 Scanning electron microscopy (SEM)
524 We followed an established protocol with minor modification to perform SEM imaging of […]

How did the MIC ([1]; MRSA, S. aureus JE2 (MRSA)) turn out when `CN[C@H](CC(C)C)C(=O)N[C@H]1C(=O)N[C@@H](CC(N)=O)C(=O)N[C@H]2C(=O)N[C@H]3C(=O)N[C@H](C(=O)N[C@H](C(=O)O)c4cc(O)cc(O)c4-c4cc3ccc4O)[C@H](O)c3ccc(c(Cl)c3)Oc3cc2cc(c3O[C@@H]2O[C@H](CO)[C@@H](O)[C@H](O)[C@H]2O[C@H]2C[C@](C)(N)[C@H](O)[C@H](C)O2)Oc2ccc(cc2Cl)[C@H]1O` [Vancomycin, reference compound] was run?
Its MIC is 1 µg/mL (≈ 0.69 µM).

What about the MIC ([1]; S. aureus BF1 (clinical isolate)) of the same compound?
Its MIC is 0.5 µg/mL (≈ 0.345 µM).

What about the MIC ([1]; S. aureus BF2 (clinical isolate)) of the same compound?
The MIC was 2 µg/mL (≈ 1.38 µM).

And the MIC ([1]; S. aureus BF3 (clinical isolate))?
Its MIC is 1 µg/mL (≈ 0.69 µM).

What about the MIC ([1]; S. aureus BF4 (clinical isolate)) of the same compound?
The MIC was 2 µg/mL (≈ 1.38 µM).

And the MIC ([1]; S. aureus BF5 (clinical isolate))?
The MIC was 1 µg/mL (≈ 0.69 µM).

What about the MIC ([1]; S. aureus BF6 (clinical isolate)) of the same compound?
The MIC was 1 µg/mL (≈ 0.69 µM).

What about the MIC ([1]; S. aureus BF7 (clinical isolate)) of the same compound?
Its MIC is 1 µg/mL (≈ 0.69 µM).

What about the MIC ([1]; S. aureus BF8 (clinical isolate)) of the same compound?
The MIC was 2 µg/mL (≈ 1.38 µM).

And the MIC ([1]; S. aureus BF9 (clinical isolate))?
Its MIC is 0.5 µg/mL (≈ 0.345 µM).

What about the MIC ([1]; S. aureus BF10 (clinical isolate)) of the same compound?
The MIC was 2 µg/mL (≈ 1.38 µM).

And the MIC ([1]; S. aureus BF11 (clinical isolate))?
Its MIC is 2 µg/mL (≈ 1.38 µM).

And the MIC ([1]; VISA, S. aureus AR0215 (VISA))?
The MIC was 2 µg/mL (≈ 1.38 µM).

What about the MIC ([1]; VISA, S. aureus AR0216 (VISA)) of the same compound?
The MIC was 4 µg/mL (≈ 2.76 µM).

What about the MIC ([1]; VISA, S. aureus AR0217 (VISA)) of the same compound?
The MIC was 2 µg/mL (≈ 1.38 µM).

And the MIC ([1]; VISA, S. aureus AR0219 (VISA))?
Its MIC is greater than 4 µg/mL.

What about the MIC ([1]; VISA, S. aureus AR0225 (VISA)) of the same compound?
Its MIC is 2 µg/mL (≈ 1.38 µM).

And the MIC ([1]; VRSA, S. aureus VRS1 (VRSA))?
Its MIC is greater than 4 µg/mL.

H-GLFKVIKKLLKVI-NH2 [CIT-8] was tested. Which “ATP leakage, luminescence” value [2] did it give?
Its value is “increased luminescence levels”.

And the “SYTOX Green fluorescence (membrane permeation)” value [3]?
The value was “significantly increased fluorescence levels”.

What about the “Cryo-EM appearance of treated cells” value [4] of the same compound?
Its value is “membrane disruption and perturbation”.
